According to ChEMBL document CHEMBL4402538, “Mycobacterial tryptophan biosynthesis: A promising target for tuberculosis drug development?” (Bioorg Med Chem Lett, 2019):
Converted amounts (≈) assume the structure as drawn.

Columns and labels:
[1] = Cytotoxicity against human HepG2 cells after 48 hrs by CellTiter Glo assay; format: cell-based
[2] = Intrinsic clearance in mouse liver microsomes incubated for 30 mins and measured up to 30 mins by LC-MS/MS analysis; format: ADME, Microsome; conditions: 0.5 h
[3] = system: Mycobacterium tuberculosis; experiment: Antimycobacterial activity against wild-type Mycobacterium tuberculosis H37Rv incubated for 2 weeks; format: functional; conditions: 336 h
[4] = system: Mycobacterium tuberculosis; experiment: Antimycobacterial activity against pan-sensitive Mycobacterium tuberculosis HN-878 incubated for 2 weeks; format: functional; conditions: HN-878, 336 h
[5] = system: Mycobacterium tuberculosis; experiment: Antimycobacterial activity against pan-sensitive Mycobacterium tuberculosis CI-11 incubated for 2 weeks; format: functional; conditions: CI-11, 336 h
[6] = system: Mycobacterium tuberculosis; experiment: Antimycobacterial activity against pan-sensitive Mycobacterium tuberculosis AS2 incubated for 2 weeks; format: functional; conditions: AS2, 336 h
[7] = system: Mycobacterium tuberculosis; experiment: Antimycobacterial activity against pan-sensitive Mycobacterium tuberculosis AS4 incubated for 2 weeks; format: functional; conditions: AS4, 336 h
[8] = system: Mycobacterium tuberculosis; experiment: Antimycobacterial activity against pan-sensitive Mycobacterium tuberculosis CI-5 incubated for 2 weeks; format: functional; conditions: CI-5, 336 h
[9] = system: Mycobacterium tuberculosis; experiment: Antimycobacterial activity against pan-sensitive Mycobacterium tuberculosis CDC1551 incubated for 2 weeks; format: functional; conditions: CDC1551, 336 h
[10] = system: Mycobacterium tuberculosis; experiment: Antimycobacterial activity against pan-sensitive Mycobacterium tuberculosis CI-4 incubated for 2 weeks; format: functional; conditions: CI-4, 336 h
[11] = Cytotoxicity against human HepG2 cells; format: cell-based
[12] = Intrinsic clearance in mouse liver microsomes at 1 uM in presence of NADPH measured up to 60 mins by LC-MS/MS analysis; format: ADME, Microsome; conditions: read-out: CLH
[13] = system: Mycobacterium tuberculosis; experiment: Antimycobacterial activity against wild-type Mycobacterium tuberculosis H37Rv infected in mouse J774 cells assessed as reduction in bacterial growth incubated for 3 days relative to control; format: functional
Mycobacterium marinum = experiment: Antimycobacterial activity against Mycobacterium marinum infected in zebra fish embryos assessed as reduction in bacterial growth at 15 to 30 uM incubated for 5 days relative to control; format: functional
[14] = system: Mycobacterium tuberculosis; experiment: Antitubercular activity against Mycobacterium tuberculosis H37Rv; format: functional
[15] = system: Mycobacterium tuberculosis; experiment: Antimycobacterial activity against Mycobacterium tuberculosis H37Rv infected in C57BL/6 mouse assessed as reduction in colony forming unit at 350 mg/kg, po administered for 8 consecutive days starting from day 1 post infection relative to control; format: functional
[16] = system: Mycobacterium tuberculosis; experiment: Antimycobacterial activity against Mycobacterium tuberculosis H37Rv in presence of tryptophan after 14 days by broth microdilution method; format: functional; conditions: 336 h
[17] = system: Mycobacterium tuberculosis; experiment: Antimycobacterial activity against Mycobacterium tuberculosis in absence of tryptophan by Alamar Blue assay; format: functional
[18] = system: Mycobacterium tuberculosis; experiment: Antitubercular activity against Mycobacterium tuberculosis infected in mouse assessed as reduction in bacterial load in infected mouse spleen at 200 mg/kg administered 8 days post infection and measured at 2 week relative to control; format: functional
[19] = Inhibition of Mycobacterium tuberculosis Anthranilate phosphoribosyltransferase expressed in Escherichia coli BL21(DE3) pRIL cells using PRPP as substrate in presence of PRAI-InGPS by fluorescence-based assay
[20] = system: Mycobacterium tuberculosis H37Rv; experiment: Inhibition of Tryptophan synthase alpha in Mycobacterium tuberculosis H37Rv assessed as bactericidal activity incubated for 4 weeks by agar dilution method
[21] = system: Mycobacterium tuberculosis; experiment: Antitubercular activity against Mycobacterium tuberculosis H37Rv ATCC 27294 after 10 days; format: functional; conditions: H37Rv ATCC 27294, 240 h
[22] = Cytotoxicity against human HepG2 cells after 24 hrs by CellTiter 96 AQueous One Solution Cell Proliferation assay; format: cell-based
[23] = Oral bioavailability in CD-1 mouse at 100 mg/kg measured up to 24 hrs; format: ADME, organism-based; conditions: in vivo
[24] = system: Mycobacterium tuberculosis; experiment: Antitubercular activity against Mycobacterium tuberculosis H37Rv infected in BALB/c mouse assessed as reduction in bacterial load in infected mouse spleen at 100 mg/kg, po administered 6 days per week for 4 weeks relative to control; format: functional

SMILES: CNS(=O)(=O)c1ccc2c(c1)CCN2C(=O)c1ccc(C)s1
- CC50 at 48 h [1]: > 100 µM
- CLH [2]: 27.1 mL/min/g

SMILES: N#C[C@@H]1N[C@@H](CO)[C@H]1c1ccc(-c2ccccc2F)cc1
- MIC90 [3]: 3 µM (≈ 0.847 µg/mL)
- MIC90 [4]: 3 µM (≈ 0.847 µg/mL)
- MIC90 [5]: 1.6 µM (≈ 0.452 µg/mL)
- MIC90 [6]: 3 µM (≈ 0.847 µg/mL)
- MIC90 [7]: 3 µM (≈ 0.847 µg/mL)
- MIC90 [8]: 3 µM (≈ 0.847 µg/mL)
- MIC90 [9]: 3 µM (≈ 0.847 µg/mL)
- MIC90 [10]: 1.6 µM (≈ 0.452 µg/mL)
- CC50 [11]: > 100 µM
- microsomal CLint at 1 µM [12]: 336 µL/min/mg
- fold change (FC) [13]: 8
- log(activity) (Mycobacterium marinum): 1.5

SMILES: O=S1(=O)C[C@H](O)[C@@H](N2CCN(c3ccccc3Cl)CC2)C1
- CC50 at 48 h [1]: > 50 µM
- CLH [2]: 15.7 mL/min/g

SMILES: O=S1(=O)C[C@H](O)[C@@H](N2CCN(c3ccc(F)cc3Cl)CC2)C1
- MIC [14]: 2.25 µM (≈ 0.785 µg/mL)
- CC50 at 48 h [1]: > 100 µM
- CLH [2]: < 0.5 mL/min/g
- log(activity) [15]: 1.4

SMILES: Cc1cccc(NC(=O)COC(=O)CCc2c[nH]c3ccccc23)c1
- MIC90 [16]: < 64 µM

SMILES: Nc1cccc(F)c1C(=O)O
- MIC [17]: 5 µM (≈ 0.776 µg/mL)
- fold change (FC) [18]: 10

SMILES: O=C(O)c1ccccc1Nc1ccccc1C(=O)O
- Ki [19]: 1.5 µM

SMILES: NC(=O)c1ccc(CNC(=O)c2cc(-c3cccc(Cl)c3)on2)cc1
- MIC [20]: 6 µg/mL (≈ 16.9 µM)

SMILES: CNS(=O)(=O)c1ccc2c(c1)CCN2C(=O)c1ccccc1F
- CC50 at 48 h [1]: > 100 µM
- CLH [2]: 39.5 mL/min/g

SMILES: O=S1(=O)C[C@H](O)[C@@H](N2CCC(c3ccccc3Cl)CC2)C1
- MIC [14]: 0.5 µM (≈ 0.165 µg/mL)
- CC50 at 48 h [1]: > 100 µM
- CLH [2]: 73.7 mL/min/g

SMILES: Nc1ccc(F)cc1C(=O)O
- MIC [17]: 5 µM (≈ 0.776 µg/mL)

SMILES: O=C(O)CCc1c[nH]c2ccccc12 [INDOLYLPROPIONIC ACID]
- MIC50 [21]: 68 µM (≈ 12.9 µg/mL)
- CC50 at 24 h [22]: > 1000 µM
- bioavailability [23]: 30 to 33%
- fold change (FC) [24]: 7
